Consider two compounds from US20080103086A1, “METHODS FOR THE TREATMENT OF DISEASES ASSOCIATED WITH THE SECRETION OF HMGB1” (priority 2006, published 2008).

For one assay, the system named is HMGB1-GFP. The experiment in a line: HMGB1-GFP imaging in transfected RAW 264.7 cells. The note with it: OA 100 nM 4 h, TSA 10 ng/mL 2 h, TNF-α 20 ng/mL 16 h. It counts as cell-based, Murine. How it is done:
RAW 264.7 cells (A) and human PBMo cells (B) were treated with OA (100 nM for 8 h), and immunofluorescent staining was performed to observe the HMGB1. TNF-α (20 ng/mL for 16 h) was used as a positive control cytokine. […] (C) Western blot analysis of HMGB1 protein in the culture supernatants of PBMo cells, which were from (B). (D) HMGB1 in the nucleus is transported to the cytoplasm by phosphorylation. RAW 264.7 cells were transfected with a wild type HMGB1-GFP plasmid and cultured for 24 h. And then the cells were treated with 2 μg/mL CHX for 1 h followed by OA treatment for 4 h or by TSA treatment for 2 h and green fluorescent images were observed. Bar: 10 μm.
FIGS. 6A-6E show Mutation of HMGB1 NLS sites alters subcellular distribution of HMGB1. (A) RAW 264.7 cells were transfected with wild-type and each mutant HMGB1-GFP plasmid and immunofluorescent assays were performed 24 h later without any treatment. (B, C, and D) OA (100 nM for 4 h), TSA (10 ng/mL for 2 h), and TNF-α (20 ng/mL for 16 h) were applied 24 h after transfection to observe the effect on HMGB1 nuclear export by phosphorylation, acetylation, or both. […] (E) Secretion of wild-type and each mutant HMGB1-GFP was tested 24 h after transfection by Western blotting. The culture supernatants were concentrated and blotted with anti-GFP. Bar: 10 μm. […]

The test system of the next assay is HMGB1 phosphorylation. As to the kind of experiment: Metabolic [32P] labeling / immunoprecipitation of HMGB1 phosphorylation in RAW 264.7 cells. It counts as cell-based, Murine. As to the method: (§1) (A) RAW 264.7 cells were treated with TNF-α (20 ng/mL for 16 h) or OA (100 nM for 8 h). The nuclear (Nu) and cytoplasmic (Cyt) proteins were separated and blotted with anti-HMGB1. (B) Metabolic [^32P] labeling of HMGB1 in RAW 264.7 cells. RAW 264.7 cells were metabolically labeled with [^32P]orthophosphate for 4 h, and stimulated with OA (100 nM), TNF-α (20 ng/mL) and LPS (100 ng/mL) for 2 or 8 h. WCLs were immunoprecipitated with rabbit anti-HMGB1 from two different vendors of BD PharMingen (BD) and Upstate Biotechnology (UP). The proteins were resolved and transferred to nitrocellulose membrane and visualized by autoradiography. (C) RAW 264.7 cells were treated with TNF-α, and WCLs were immunoprecipitated with anti-pSer, anti-pTyr, and anti-pThr and blotted with anti-HMGB1. WCL was loaded as an HMGB1 control (lane 1). Anti-pAKT was used for a control antibody (lane 3). (D) RAW 264.7 cells were treated with TNF-α for the indicated time. WCLs were immunoprecipitated with anti-HMGB1, blotted with anti-pSer and reblotted with anti-HMGB1. The same culture supernatants were concentrated, separated, and blotted with anti-HMGB1.
To identify the phosphorylated residues of the HMGB1 protein, TNF-α-treated RAW 264.7 cells were lysed with a protease inhibitor cocktail. Cell homogenates were centrifuged at 20,000 g for 15 min and precleared by incubation with protein G-Sepharose (Amersham) at 4° C. for 30 min. The precleared extracts (500 μg) were incubated with rabbit polyclonal anti-pSer, anti-pTyr and anti-pThr (all from Chemicon) and then protein G-Sepharose was added and incubated for 3 h at 4° C. […]
RAW 264.7 cells were cultured in phosphate starved condition of phosphate-free DMEM containing 10% dialyzed FBS (Gibco BRL) for 4 h and further incubated for 4 h by adding 600 μCi of [^32P]orthophosphate (Amersham Pharmacia Biotech) per mL to each dish. […] The concentration of total soluble proteins in the supernatant was quantified using the Bradford reagent (Bio-Rad). […] The gels were dried and the radioactivity was analyzed by autoradiography.

Another assay has as its system HMGB1. The experiment in a line: HMGB1 relocation from nucleus to cytoplasm in RAW 264.7 cells (fraction Western blot, immunofluorescence). In kind it is cell-based, Murine. Conditions: OA 100 nM for 8 h, TNF-α 20 ng/mL for 16 h. How it is done: as §1, with “(D) RAW 264.7 cells were treated with TNF-α for the indicated time. WCLs were immunoprecipitated with anti-HMGB1, blotted with anti-pSer and reblotted with anti-HMGB1. The same culture supernatants were concentrated, separated, and blotted with anti-HMGB1.” left out
To analyze the secretion of HMGB1 in the supernatants, culture media were replaced with serum-free OPTI-MEM (Gibco BRL) medium and concentrated with Amicon Centricon filtration (Millipore) after removing cell debris, and Western blot analysis was performed. […] The cells were lysed using 1% Nonidet P-40 buffer containing a protease inhibitor cocktail (Sigma), and the protein concentrations were measured by Bradford assay (Biorad) for the analysis of whole cell lysates (WCLs). […]
Background: In western blotting, separated proteins are transferred to a membrane and probed.

For the next assay, the system named is HMGB1 binding to KAP-α1. As to the kind of experiment: GST-KAP-α1 pull-down of HMGB1 from treated RAW 264.7 cell lysates. The note with it: GST-KAP-α1 on glutathione-Sepharose beads; WCLs of treated RAW 264.7 cells. As to the method:
FIGS. 4A-4C show the binding of HMGB1 to nuclear import proteins. (A) GST-KAP-α1, -2, -3, -4, -5, -6, and -β1 fusion proteins immobilized on glutathione-Sepharose 4B beads were incubated with WCLs of RAW 264.7 cells overnight at 4° C. Sepharose-bound proteins were separated and the membrane was blotted with anti-HMGB1 and reblotted with anti-GST. WCL was loaded as an HMGB1 control (lane 1), and GST protein was used as a negative control (lane 2). (B) Six His-tagged wild type HMGB1 and boxes A (aa 1-87) and B (aa 88-162) HMGB1 proteins were purified from E. coli BL21 and identified at expected size by Coomassie blue staining. HMGB1 and GST-KAP-α1 was incubated for 2 h at 4° C., and the precipitate was blotted with anti-His for HMGB1 and reblotted with anti-GST for KAP-α1. (C) GST-KAP-α1, immobilized on glutathione-Sepharose beads, was incubated with WCLs of RAW 264.7 cells which were treated with OA, TSA, or TNF-α. The precipitates were blotted with anti-HMGB1 and reblotted with anti-GST.
Two μg of each GST-KAP protein was coupled to glutathione sepharose 4B beads and incubated with 500 μg of WCL from RAW 264.7 cells as a HMGB1 source at 4° C. overnight. […]

On to TNF-α, for which the “HMGB1-GFP (wild-type and mutants) relocation 24 h after transfection” value in the assay with HMGB1-GFP is given as “The same results were observed”. Besides, in the assay with HMGB1 phosphorylation (RAW 264.7 cells treated with TNF-α for the indicated time), the “level of phosphorylated (p-) HMGB1 (IP anti-HMGB1, blot anti-pSer)” value is reported as “increased by TNF-α in a time-dependent manner”. Moreover, the “phosphorylated amino acid residue of HMGB1 (IP anti-pSer, anti-pTyr, anti-pThr)” value in the assay with HMGB1 phosphorylation (RAW 264.7 cells, 20 ng/mL TNF-α for 16 h) is “Only serine residues of HMGB1 were phosphorylated”. Moreover, in the assay on HMGB1 phosphorylation (RAW 264.7 cells, 100 nM OA, 20 ng/mL TNF-α, 100 ng/mL LPS, 2 or 8 h), the “HMGB1 phosphorylation ([32P]orthophosphate labeling, autoradiography)” value is reported as “phosphorylated”. In addition, the “HMGB1 in the cytoplasm (nuclear/cytoplasmic fractions, Western blot)” value in the assay with HMGB1 is given as “translocation of nuclear HMGB1 to the cytoplasm”.
For the compound `CC(/C=C/C(=O)NO)=C\[C@@H](C)C(=O)c1ccc(N(C)C)cc1` [TSA, trichostatin A], in the assay with HMGB1-GFP, the “HMGB1-GFP (wild-type and mutants) relocation 24 h after transfection” value was “the wild-type and all mutant HMGB1-GFPs showed cytoplasmic relocation”. Also, in the assay on HMGB1 binding to KAP-α1, the “binding of HMGB1 from treated cell lysate to KAP-α1” value is listed as “no binding to KAP-α1”.
